Assay results reported in patent publication US9532962B2, “Medium-chain length fatty acids and glycerides as nephroprotection agents” (priority 2007, dated 2017).
“Also recorded” adds a separate entry of the source.

Tests used:
C57B1/6 mice = assay: Doxorubicin-induced nephrotoxicity model; format: in vivo; details: for histological kidney lesions score: 10 mg/kg i.v. at day 0; for histological kidney lesions score at the tubular level induced by doxorubicin / serum urea induced by doxorubicin: oral; for serum creatinine induced by doxorubicin: FIG. 9; for serum urea induced by doxorubicin: FIG. 10
Experimental: C57B1/6 mice (6-10 week-old) were treated with sodium caprate prophylacticly from day −3 to day 10 or treated therapeutically from day 1 to 10. Nephrotoxicity was induced by an intravenous injection of 10 mg/kg of doxorubicin at day 0, Serum creatinine and urea were monitored at day 4, 7 and 11.

[1] = test system: 5/6 nephrectomized (Nx) rats; assay: Kidney protection in 5/6 nephrectomized (Nx) rat model; format: in vivo, Wistar rats
Experimental: (§1) Male 6 week-old Wistar rats were subjected to 5/6 nephrectomy or sham operations. Under ketamine anesthesia (60 to 100 mg/kg, i.p.), renal ablation was achieved by removing two-thirds of the left kidney followed by a right unilateral nephrectomy 7 days later. Sham rats underwent exposition of the kidneys and removal of the perirenal fat. Twenty-one days after the first operation, rats were assigned in the study if the serum creatinine was greater than 125 μmol/L indicating a dysfunction of the kidney. Animals that underwent the sham operation were given vehicle (saline) and were used as controls. Nx animals were divided in groups receiving the vehicle or sodium caprate. Saline or sodium caprate was given by gastric gavage once daily for 35 days. Serum creatinine was measured weekly in order to assess the severity of this end-stage renal disease model. Rats were sacrificed at day 63.

[2] = test system: 5/6 nephrectomized (Nx) rats; assay: Heart protection (blood pressure) in 5/6 nephrectomized (Nx) rat model; format: in vivo; details: RTBP 2000, FIG. 8
Experimental: as §1

[3] = prophylactic (pre-doxorubicin) treatment
[4] = therapeutic (post-doxorubicin) treatment

Compound	histological lesions in affected tubular regions (micrographs) (C57B1/6 mice; 10 mg/kg i.v. at day 0, 400×)	histological kidney lesions score (C57B1/6 mice; day 7 and 11, FIG. 11)	histological kidney lesions score (C57B1/6 mice; day 12, FIG. 13)	kidney structure (density, glomerulus and tubular structure), histological micrographs ([1]; 40×, compared to control Nx rats, FIG. 6)	fibrosis and necrosis of the kidney tissue, histological micrographs ([1]; 400×, glomerulus level, FIG. 7)	serum creatinine ([1]; compared to control Nx rats, FIG. 5)	urine creatinine ([1]; day 21 to day 42, FIG. 4)	animals showing reduction of initial serum creatinine concentration ([1]; sodium caprate-treated Nx rats, FIG. 2)	histological kidney lesions score at the tubular level induced by doxorubicin (C57B1/6 mice; [3])	serum creatinine induced by doxorubicin (C57B1/6 mice; prophylactic treatment day -3 to day 10, oral)	protection of kidney against doxorubicin toxicity, histological micrographs (C57B1/6 mice; prophylactic treatment, 400×)	serum urea induced by doxorubicin (C57B1/6 mice; prophylactic treatment)	histological kidney lesions score at the tubular level induced by doxorubicin (C57B1/6 mice; [4])	protection of kidney against doxorubicin toxicity, histological micrographs (C57B1/6 mice; therapeutic treatment)	serum creatinine induced by doxorubicin (C57B1/6 mice; therapeutic treatment day 1 to 10, oral)	serum urea induced by doxorubicin (C57B1/6 mice; therapeutic treatment)	blood pressure [2]
COc1cccc2c1C(=O)c1c(O)c3c(c(O)c1C2=O)C[C@@](O)(C(=O)CO)C[C@@H]3O[C@H]1C[C@H](N)[C@H](O)[C@H](C)O1 [doxorubicin, reference compound]	induces kidney cell apoptosis, fibrosis, sclerosis, and accumulation of proteins; also recorded: induces kidney cell apoptosis, fibrosis, sclerosis and accumulation of proteins	induces significant kidney lesions	induces significant kidney lesions														
CCCCCCCCCC(=O)[O-].[Na+] [sodium caprate]				more conserved	reduces fibrosis and necrosis	significant (p=0.00006) decrease	significant (p=0.0002) increase	80%	reduce the kidney lesions	inhibits the increase of serum creatinine induced by doxorubicin to a similar level observed in control mice	protects kidney against doxorubicin toxicity	inhibits the increase of serum urea induced by doxorubicin to a similar level observed in control mice	reduce the kidney lesions	protects kidney against doxorubicin toxicity	reduces the serum creatinine level	inhibits the increase of serum urea induced by doxorubicin to a similar level observed in control mice	significant decrease
CCCCCCCCCC(=O)OCC(COC(=O)CCCCCCCCC)OC(=O)CCCCCCCCC [tricaprin]									reduces the kidney lesions		protects kidney against doxorubicin toxicity		reduces the kidney lesions	protects kidney against doxorubicin toxicity			
